This is an account of results in patent publication US20240199587A1, “HETEROCYCLIC COMPOUNDS” (Hoffmann-La Roche Inc., priority 2021, published 2024).

In this assay the target is T1, MAGL (Homo sapiens, UniProt Q99685).
T1 sequence (Q99685 1-303): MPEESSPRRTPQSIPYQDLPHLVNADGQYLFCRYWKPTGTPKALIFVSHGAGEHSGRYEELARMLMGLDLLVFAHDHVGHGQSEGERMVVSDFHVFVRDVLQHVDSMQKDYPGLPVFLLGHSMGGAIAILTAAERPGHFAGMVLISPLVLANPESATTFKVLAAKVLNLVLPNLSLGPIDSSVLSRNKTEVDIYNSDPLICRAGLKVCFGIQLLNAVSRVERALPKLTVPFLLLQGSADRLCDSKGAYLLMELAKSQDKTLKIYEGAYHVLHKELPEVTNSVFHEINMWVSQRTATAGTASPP
Description: 2-AG assay (MAGL inhibitory activity, hydrolysis of 2-arachidonoylglycerol to arachidonic acid followed by mass spectrometry). It is filed as biochemical. The conditions noted are these: 8 μM 2-arachidonoylglycerol, 15 min pre-incubation, 30 min incubation at RT, RapidFire MS readout. An outline of the steps: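 Arachidonic acid released from 8 μM 2-arachidonoylglycerol was quantified by online SPE triple-quadrupole MS (negative ESI, 303.1→259.1), normalised to d8-arachidonic acid internal standard. Reaction ran 30 min at RT after 15 min RT compound pre-incubation with […] MAGL in TRIS/EDTA/Tween-20 buffer, 2.5% DMSO.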
Usually IC50 stands for the midpoint of a concentration-inhibition curve. Low values mean greater potency, high ones weaker potency. Take `CS(=N)(=O)c1cc(F)ccc1CC1CC2(C1)CN(C(=O)N1CC3(CC(n4cnc(C5(O)CC5)n4)C3)C1)C2` (centres unmarked) [Example 354, [6-[[4-fluoro-2-(methylsulfonimidoyl)phenyl]methyl]-2-azaspiro[3.3]heptan-2-yl]-[6-[3-(1-hydroxycyclopropyl)-1,2,4-triazol-1-yl]-2-azaspiro[3.3]heptan-2-yl]methanone]: half-maximal inhibition (IC50) was put at 19.2 nM.
The molecule `Cc1cc(C2CC2)n(C23CC(C4CN(C(=O)N5CC6(CC(n7cnc(C8(O)CC8)n7)C6)C5)C4)(C2)C3)n1` [Example 355, [3-[3-(5-cyclopropyl-3-methyl-pyrazol-1-yl)-1-bicyclo[1.1.1]pentanyl]azetidin-1-yl]-[6-[3-(1-hydroxycyclopropyl)-1,2,4-triazol-1-yl]-2-azaspiro[3.3]heptan-2-yl]methanone] had a half-maximal inhibitory concentration (IC50) of 134 nM.
For `Cc1cc(C)n(C23CC(C4CN(C(=O)N5CC6(CC(n7cnc(C8(O)CC8)n7)C6)C5)C4)(C2)C3)n1` [Example 356, [3-[3-(3,5-dimethylpyrazol-1-yl)-1-bicyclo[1.1.1]pentanyl]azetidin-1-yl]-[6-[3-(1-hydroxycyclopropyl)-1,2,4-triazol-1-yl]-2-azaspiro[3.3]heptan-2-yl]methanone], the IC50 came out at 1090 nM.
Molecule `O=C(N1CC2(CC(Cc3ccc4[nH]ncc4n3)C2)C1)N1CC2(CC(n3cnc(C4CC4)n3)C2)C1` [Example 357, [6-(3-cyclopropyl-1,2,4-triazol-1-yl)-2-azaspiro[3.3]heptan-2-yl]-[6-(1H-pyrazolo[4,3-b]pyridin-5-ylmethyl)-2-azaspiro[3.3]heptan-2-yl]methanone] showed an IC50 of 2.01 nM.
For `O=C(N1CC2(CC(Cc3ccc(F)cc3F)C2)C1)N1CC2(CC(c3ccc(C(F)(F)F)nc3)C2)C1` [Example 358, [6-[(2,4-difluorophenyl)methyl]-2-azaspiro[3.3]heptan-2-yl]-[6-[6-(trifluoromethyl)-3-pyridyl]-2-azaspiro[3.3]heptan-2-yl]methanone] the value was 30.6 nM; for `CS(=O)(=O)c1cc(CC2CC3(C2)CN(C(=O)N2CC4(CC(n5cnc(C6(O)CC6)n5)C4)C2)C3)cc(C(F)(F)F)c1` [Example 359, [6-[3-(1-hydroxycyclopropyl)-1,2,4-triazol-1-yl]-2-azaspiro[3.3]heptan-2-yl]-[6-[[3-methylsulfonyl-5-(trifluoromethyl)phenyl]methyl]-2-azaspiro[3.3]heptan-2-yl]methanone], 1 nM.
In the case of `O=C(N1CC2(CC(n3cnc(C4(O)CC4)n3)C2)C1)N1CC2(CC[C@@H](Cc3cccc(S(=O)(=O)C(F)(F)F)c3)C2)C1` [Example 360, [6-[3-(1-hydroxycyclopropyl)-1,2,4-triazol-1-yl]-2-azaspiro[3.3]heptan-2-yl]-[(6S)-6-[[3-(trifluoromethylsulfonyl)phenyl]methyl]-2-azaspiro[3.4]octan-2-yl]methanone] it was 0.13 nM.
In turn, `O=C(N1CC2(CC(n3cnc(C4(O)CC4)n3)C2)C1)N1CC2(CC[C@H](Cc3cccc(S(=O)(=O)C(F)(F)F)c3)C2)C1` [Example 361, [6-[3-(1-hydroxycyclopropyl)-1,2,4-triazol-1-yl]-2-azaspiro[3.3]heptan-2-yl]-[(6R)-6-[[3-(trifluoromethylsulfonyl)phenyl]methyl]-2-azaspiro[3.4]octan-2-yl]methanone] gave a half-maximal inhibitory concentration (IC50) of 0.21 nM. Against the preceding molecule, the IC50 is about 1.6-fold higher.
In the case of `O=C(N1CC2(CC(n3cnc(C4(O)CC4)n3)C2)C1)N1CC2(CC[C@@H](Cc3ccc(S(=O)(=O)C(F)(F)F)cc3)C2)C1` [Example 362, [6-[3-(1-hydroxycyclopropyl)-1,2,4-triazol-1-yl]-2-azaspiro[3.3]heptan-2-yl]-[(6S)-6-[[4-(trifluoromethylsulfonyl)phenyl]methyl]-2-azaspiro[3.4]octan-2-yl]methanone] it was 1.73 nM.
In the case of `O=C(N1CC2(CC(n3cnc(C4(O)CC4)n3)C2)C1)N1CC2(CC[C@H](Cc3ccc(S(=O)(=O)C(F)(F)F)cc3)C2)C1` [Example 363, [6-[3-(1-hydroxycyclopropyl)-1,2,4-triazol-1-yl]-2-azaspiro[3.3]heptan-2-yl]-[(6R)-6-[[4-(trifluoromethylsulfonyl)phenyl]methyl]-2-azaspiro[3.4]octan-2-yl]methanone] it was 1.35 nM.
In the case of `O=C(N1CC2(CC(Cc3ccc(S(=O)(=O)C4CC4)cc3)C2)C1)N1CC2(CC(n3cnc(C4(O)CC4)n3)C2)C1` [Example 364, [6-[(4-cyclopropylsulfonylphenyl)methyl]-2-azaspiro[3.3]heptan-2-yl]-[6-[3-(1-hydroxycyclopropyl)-1,2,4-triazol-1-yl]-2-azaspiro[3.3]heptan-2-yl]methanone] it was 1.84 nM.
In turn, `N#Cc1cc(CC2CC3(C2)CN(C(=O)N2CC4(CC(n5cnc(C6(O)CC6)n5)C4)C2)C3)ccc1C(F)(F)F` [Example 365, 5-[[2-[6-[3-(1-hydroxycyclopropyl)-1,2,4-triazol-1-yl]-2-azaspiro[3.3]heptane-2-carbonyl]-2-azaspiro[3.3]heptan-6-yl]methyl]-2-(trifluoromethyl) benzonitrile] showed a half-maximal inhibitory concentration (IC50) of 1.83 nM.
For `CS(=O)(=O)c1cc(Cl)ccc1-c1ccc(C2CN(C(=O)N3CC4(CC(c5cncc(F)c5)C4)C3)C2)cc1` [Example 366, [3-[4-(4-chloro-2-methylsulfonyl-phenyl)phenyl]azetidin-1-yl]-[6-(5-fluoro-3-pyridyl)-2-azaspiro[3.3]heptan-2-yl]methanone] the value was 14.2 nM.
In the case of `O=C(N1CC2(CC(Cc3ncc(Cl)cc3F)C2)C1)N1CC2(CC(n3cnc(C4(O)CC4)n3)C2)C1` [Example 367, [6-[(5-chloro-3-fluoro-2-pyridyl)methyl]-2-azaspiro[3.3]heptan-2-yl]-[6-[3-(1-hydroxycyclopropyl)-1,2,4-triazol-1-yl]-2-azaspiro[3.3]heptan-2-yl]methanone] it was 2.38 nM; in that of `N#Cc1ccc(CC2CC3(C2)CN(C(=O)N2CC4(CC(n5cnc(C6(O)CC6)n5)C4)C2)C3)cc1C(F)(F)F` [Example 368, 4-[[2-[6-[3-(1-hydroxycyclopropyl)-1,2,4-triazol-1-yl]-2-azaspiro[3.3]heptane-2-carbonyl]-2-azaspiro[3.3]heptan-6-yl]methyl]-2-(trifluoromethyl) benzonitrile], 1.57 nM.
In the case of `O=C(N1CC2(CC(n3cnc(C4(O)CC4)n3)C2)C1)N1CC2(CCN(Cc3ccc(S(=O)(=O)C(F)(F)F)cc3)C2)C1` [Example 369, [6-[3-(1-hydroxycyclopropyl)-1,2,4-triazol-1-yl]-2-azaspiro[3.3]heptan-2-yl]-[7-[[4-(trifluoromethylsulfonyl)phenyl]methyl]-2,7-diazaspiro[3.4]octan-2-yl]methanone], the IC50 was 49.3 nM. Against the preceding molecule, the IC50 is about 31-fold higher.
In the case of `N#Cc1cc(CC2CC3(C2)CN(C(=O)N2CC4(CC(n5cnc(C6(O)CC6)n5)C4)C2)C3)cc(C(F)(F)F)c1` [Example 370, 3-[[2-[6-[3-(1-hydroxycyclopropyl)-1,2,4-triazol-1-yl]-2-azaspiro[3.3]heptane-2-carbonyl]-2-azaspiro[3.3]heptan-6-yl]methyl]-5-(trifluoromethyl) benzonitrile] it was 0.9 nM; in that of `CS(=O)(=O)c1cc(Cl)ccc1-c1ccc(C2CN(C(=O)N3CC4(CC(c5ccc(C(F)(F)F)nc5)C4)C3)C2)cc1` [Example 371, [3-[4-(4-chloro-2-methylsulfonyl-phenyl)phenyl]azetidin-1-yl]-[6-[6-(trifluoromethyl)-3-pyridyl]-2-azaspiro[3.3]heptan-2-yl]methanone], 9.23 nM; in that of `O=C(N1CC(c2ccc(NCC3(C(F)(F)F)CC3)nc2)C1)N1CC2(CC(n3cnc(C4(O)CC4)n3)C2)C1` [Example 372, [6-[3-(1-hydroxycyclopropyl)-1,2,4-triazol-1-yl]-2-azaspiro[3.3]heptan-2-yl]-[3-[6-[[1-(trifluoromethyl)cyclopropyl]methylamino]-3-pyridyl]azetidin-1-yl]methanone], 1.12 nM.
Turning to `O=C(N1CC(c2ccc(N3CC[C@@H](C(F)(F)F)C3)nc2)C1)N1CC2(CC(n3cnc(C4(O)CC4)n3)C2)C1` [Example 373, [6-[3-(1-hydroxycyclopropyl)-1,2,4-triazol-1-yl]-2-azaspiro[3.3]heptan-2-yl]-[3-[6-[(3R)-3-(trifluoromethyl)pyrrolidin-1-yl]-3-pyridyl]azetidin-1-yl]methanone], the 50% inhibitory concentration (IC50) came out at 3.24 nM.
For `CS(=N)(=O)c1cccc(CC2CC3(C2)CN(C(=O)N2CC4(CC(n5cnc(C6(O)CC6)n5)C4)C2)C3)c1` (centres unmarked) [Example 374, [6-[3-(1-hydroxycyclopropyl)-1,2,4-triazol-1-yl]-2-azaspiro[3.3]heptan-2-yl]-[6-[[3-(methylsulfonimidoyl)phenyl]methyl]-2-azaspiro[3.3]heptan-2-yl]methanone] the value was 52.9 nM.
For `CP(C)(=O)c1ccc(CC2CC3(C2)CN(C(=O)N2CC4(CC(n5cnc(C(F)(F)F)n5)C4)C2)C3)cc1` [Example 375, [6-[(4-dimethyl-phosphorylphenyl)methyl]-2-azaspiro[3.3]heptan-2-yl]-[6-[3-(trifluoromethyl)-1,2,4-triazol-1-yl]-2-azaspiro[3.3]heptan-2-yl]methanone] the value was 12.7 nM; for `CP(C)(=O)c1ccc(CC2CC3(C2)CN(C(=O)N2CC4(CC(n5cnc(C6CC6)n5)C4)C2)C3)cc1` [Example 376, [6-(3-cyclopropyl-1,2,4-triazol-1-yl)-2-azaspiro[3.3]heptan-2-yl]-[6-[(4-dimethyl-phosphorylphenyl)methyl]-2-azaspiro[3.3]heptan-2-yl]methanone], 4.07 nM.
